# Data published in patent US11945826B2, “Hydroxypyridoxazepines as NRF2 activators” (GLAXOSMITHKLINE INTELLECTUAL PROPERTY DEVELOPMENT LIMITED, priority 2019, dated 2024).
# System: murine TAC model
# Test: Mouse Transverse Aortic Constriction (TAC) Left Ventricular Pressure Overload Model
# Type: in vivo, C57BLK/6J mice
# Conditions: 10-week mouse TAC, Example 1 at 1, 3, 10 mg/kg/d, Example B at 100 mg/kg/d
# Excerpt: Male C57BLK/6J mice (10-12 weeks old) were individually housed and acclimated to a standard powdered rodent diet for 1-3 days. Water was offered ad libitum throughout the study. Mice were initially anesthetized in a chamber using an 3% isoflurane with oxygen (1.0 L/min), and then maintained at 1.5% via nose cone (without intubation). A small incision (˜5 mm) was made just left of midline and just above the rib cage at the level of the suprasternal notch. The muscle tissue was retracted to expose the area above the pleural cavity. The lobes of the thymus were separated and retracted to expose the aortic arch. Fine surgical forceps with blunted tips were used to expose a region above and below the aorta. A micro blunt hook tied with 7-0 silk surgical suture was looped under the aorta and the suture pulled through. The suture was tied-off against a small piece of blunted 27 G needle and the needle was then removed creating the aortic constriction (a 60-70% constriction of the lumen). The incision was closed using 6-0 silk suture for the muscle layer, then the skin with Medbond. The sham procedure was identical without ligation of aorta. Depending on the individual study designs, drug administration began either on the day of surgery, or 1-2 weeks after surgery (detailed in figure legends) and continued until the end of study. Compounds were administered in the mouse chow unless otherwise noted in FIG. 12 legends. TAC study duration was either 6 weeks or 10 weeks in duration. All TAC study endpoints were collected at the end of study. Following heart dissections, samples were either snap frozen in liquid nitrogen and stored at −80° C. or placed in 10% neutral buffered formalin until analysis.
# Echocardiography: For mouse TAC studies, echocardiography was performed on a Vevo 2100 high frequency imaging system. Animals were anesthetized with 2-3% isoflurane and sedation maintained with 1% isoflurane with animals on a heating pad. B-mode imaging of three cardiac cycles was used to assess ejection fraction (EF), end diastolic volume (EDV), end systolic volume (ESV), LV mass, and heart rate. ECG was used to measure heart rate during the echocardiography procedure.
# NADPH dehydrogenase [quinone]-1 (NQO1) activity: Left ventricular (LV) tissue NQO1 activity was determined using an NQO1 assay kit per manufacturer's protocol (Abcam, Cambridge MA)
# The KEAP1 blockers/Nrf2 activators, (R)-3-(1,4-dimethyl-1H-benzo[d][1,2,3]triazol-5-yl)-3-(3-(((R)-2-ethyl-7-hydroxy-2,3-dihydropyrido[2,3-f][1,4]oxazepin-4(5H)-yl)methyl)-4-methylphenyl)propanoic acid, hydrochloride, or a tautomer thereof (Example 1) (in dose-response) and (S)-3-(1,4-dimethyl-1H-benzo[d][1,2,3]triazol-5-yl)-3-(3-(((R)-2-ethyl-2,3-dihydropyrido[3,4-f][1,4]oxazepin-4(5H)-yl)methyl)-4-methylphenyl)-2,2-dimethylpropanoic acid (Example B) were evaluated in a 10-week mouse TAC model of severe hemodynamic stress.
# FIG. 12 depicts the effect of the KEAP1-kelch domain blockers/Nrf2 activators (R)-3-(1,4-dimethyl-1H-benzo[d][1,2,3]triazol-5-yl)-3-(3-(((R)-2-ethyl-7-hydroxy-2,3-dihydropyrido[2,3-f][1,4]oxazepin-4(5H)-yl)methyl)-4-methylphenyl)propanoic acid, hydrochloride, or a tautomer thereof (Compound of Example 1) and (S)-3-(1,4-dimethyl-1H-benzo[d][1,2,3]triazol-5-yl)-3-(3-(((R)-2-ethyl-2,3-dihydropyrido[3,4-f][1,4]oxazepin-4(5H)-yl)methyl)-4-methylphenyl)-2,2-dimethylpropanoic acid (Compound B) on cardiac function, remodeling, and NQO1 enzyme activity in the murine 10-week TAC model. All compounds were dosed in chow beginning 2-weeks after TAC. […]
smiles,measurement,setting,value
"CC[C@@H]1CN(Cc2cc([C@@H](CC(=O)O)c3ccc4c(nnn4C)c3C)ccc2C)Cc2nc(O)ccc2O1 [Example 1, (R)-3-(1,4-dimethyl-1H-benzo[d][1,2,3]triazol-5-yl)-3-(3-(((R)-2-ethyl-7-hydroxy-2,3-dihydropyrido[2,3-f][1,4]oxazepin-4(5H)-yl)methyl)-4-methylphenyl)propanoic acid]",cardiac function as assessed by ejection fraction,daily in chow for eight weeks from 2 weeks after TAC,full normalization of cardiac function
same,NAD(P)H quinone oxidoreductase 1 (NQO1) in the LV,daily in chow for eight weeks,significant dose-related elevations
same,cardiac hypertrophy (left ventricular mass),daily in chow for eight weeks,did not influence cardiac hypertrophy
same,unloading the heart (blood pressure) or heart rate,daily in chow for eight weeks,"nor did the ejection fraction change occur by unloading the heart (i.e., lowering blood pressure) or increasing the heart rate"
